US5254727A, “Acyclic tricarboxylic acid compounds” (Merck & Co., Inc., priority 1992, dated 1993)
pIC50: −log10 of the molar value.

Columns and labels:
[1] = target: T1, squalene synthetase from human HEPG2 cells (Homo sapiens, UniProt P37268); test: Squalene synthetase assay using HepG2 cell enzyme; type: biochemical; conditions: 3 μM 3H-farnesyl pyrophosphate, 30° C., 20 min
T1 construct: The resulting pellet from the 34,000 rpm centrifugation, containing the squalene synthetase, was resuspended in 5 mL of enzyme suspension buffer; endogenous in cells; host or cells: HepG2 cells (ATCC HB 8065), pellet of the 34,000 rpm centrifugation (microsomal)
T1 sequence (P37268 1-417): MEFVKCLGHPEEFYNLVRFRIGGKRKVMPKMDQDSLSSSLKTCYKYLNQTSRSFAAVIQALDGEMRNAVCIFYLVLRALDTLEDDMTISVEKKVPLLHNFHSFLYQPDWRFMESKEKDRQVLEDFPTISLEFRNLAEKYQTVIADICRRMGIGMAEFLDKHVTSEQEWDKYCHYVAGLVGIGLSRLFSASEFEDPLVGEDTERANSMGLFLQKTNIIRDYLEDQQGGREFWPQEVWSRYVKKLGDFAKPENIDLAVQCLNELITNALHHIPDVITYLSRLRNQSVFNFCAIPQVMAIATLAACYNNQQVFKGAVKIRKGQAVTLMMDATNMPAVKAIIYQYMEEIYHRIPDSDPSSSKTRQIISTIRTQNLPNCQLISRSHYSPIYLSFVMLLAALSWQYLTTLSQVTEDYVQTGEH
Description: A. SQUALENE SYNTHETASE ASSAY USING HEPG2 CELL ENZYME
1. Preparation of Human HepG2 Cell Enzyme
Source: HEPG2 CELL LINE (Liver, hepatoblastoma, Human) ATCC No. HB 8065
Cell Growth and Maintenance: Culture Medium: Minimum essential medium (MEM) with non-essential amino acids, sodium pyruvate, and 10% fetal bovine serum. The medium was changed twice weekly. A confluent monolayer was acheived in 1 week. The growth medium was prepared as listed below.
Subculture Procedure: The medium was removed and washed with PBS (Phosphate-Buffered Saline 15.6 mM, pH 7.0). Fresh trypsin (0.25%)-EDTA (0.02%) with Hank's Balanced Salt solution was added and the flask was allowed to stand for a minute before the trypsin solution was removed. The flask was incubated at 37° C. until cells detached. Fresh medium was added and the cells were dispersed and dispensed into new flasks. Subcultivation ratio: 1:6.
Preparation of Delipidated Serum: Fetal calf serum (100 ml) and CAB-O-Sil (2 grams) were stirred overnight at 4° C. and centrifuged at 16,000 rpm for 5 hrs. […]
Harvest: The medium was removed and the cells were washed with PBS. […] Cells were counted (2.5×10^9 yield from 18 flasks (75 cm^2)), and resuspended in 10 mL of 50 mM HEPES (N-[2-Hydroxyethyl]piperazine-N'-[2-ethane-sulfonic acid]) containing 5 mM MgCl2, 2 mM MnCl2, 10 mM DTT (dithiothreitol), pH 7.5 (enzyme suspension buffer). […]

[2] = target: T2, squalene synthetase, rat liver microsomes (Rattus norvegicus, UniProt Q02769); test: Squalene synthetase assay using rat liver enzyme; type: biochemical; conditions: rat liver microsomal enzyme, [4-14C]farnesyl pyrophosphate, 30° C., 20 min
T2 construct: from tissue; host or cells: liver microsomes of male Charles River CD rats fed 0.1% lovastatin
T2 sequence (Q02769 1-416): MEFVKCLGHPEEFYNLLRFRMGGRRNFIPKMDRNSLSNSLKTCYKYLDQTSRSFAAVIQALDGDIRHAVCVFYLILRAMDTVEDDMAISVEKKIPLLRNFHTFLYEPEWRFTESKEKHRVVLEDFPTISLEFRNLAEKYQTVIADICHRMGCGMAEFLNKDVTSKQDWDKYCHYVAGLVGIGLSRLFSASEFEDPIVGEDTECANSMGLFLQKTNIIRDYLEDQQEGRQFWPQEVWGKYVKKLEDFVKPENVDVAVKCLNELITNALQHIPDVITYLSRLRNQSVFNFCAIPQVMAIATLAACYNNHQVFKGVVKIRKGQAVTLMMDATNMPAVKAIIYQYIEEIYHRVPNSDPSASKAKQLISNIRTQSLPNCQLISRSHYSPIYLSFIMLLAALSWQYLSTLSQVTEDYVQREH
Description: B. SQUALENE SYNTHETASE ASSAY USING RAT LIVER ENZYME
Preparation of Rat Liver Microsomes: Male, Charles River CD rats (120 to 150 g) were fed a diet containing 0.1% lovastatin for 4 days. The livers from these rats were homogenized in 5 volumes (ml/g) of ice cold 50 mM HEPES (4-(2-hydroxyethyl)-1-piperazine-ethanesulfonic acid), 5 mM EDTA(ethylenediaminetetra-acetic acid) pH 7.5 with a Potter-Elvehjem type tissue grinder. The homogenate was centrifuged twice at 20,000×g for 15 minutes at 4° C., discarding the pellet each time. The supernatant was then centrifuged at 100,000×g for 1 hour at 4° C. The resulting microsomal pellet was resuspended in a volume of the above homogenizing buffer equal to one-fifth the volume of the original homogenate. This microsomal preparation has a protein concentration of about 7 mg/ml. The microsomal suspensions were stored in aliquots at -70° C. Squalene synthetase activity in these aliquots is stable for at least several months.
Partial Purification of Prenyl Transferase: Prenyl transferase was purified to use in the enzymatic synthesis of radiolabelled farnesyl pyrophosphate [FPP]. Prenyl transferase was assayed by the method of Rilling (Methods in Enzymology 110, 125-129 (1985)) and a unit of activity is defined as the amount of enzyme that will produce 1 μmole of farnesyl pyrophosphate per minute at 30° C. in the standard assay. […]

pIC50 [1]: ~6.84 | pIC50 [2]: 6.12
Compound: CC(C/C=C/c1ccccc1)CC(C)CCCCCC(C(=O)O)C(O)(CC(=O)O)C(=O)O (centres unmarked) [Compound IA]
